According to patent US20250019648A1, “A SPERM EXTENDER MEDIUM” (MEAT & LIVESTOCK AUSTRALIA LIMITED, priority 2021, published 2025):

Tests used:
[1] = test system: bovine spermatozoa; assay: Fungicide comparison on bovine sperm motility; format: cell-based; details: Nystatin 100 U/mL, Fluconazole 12.5 mg/L and 25 mg/L; 1, 3, 7, 10 and 14 days at RT in glycine (82.2 mM) medium
Excerpt: Sperm motility was objectively determined with computer assisted sperm analysis (CASA; IVOS, Hamilton Thorne, Danvers, MA) using the following settings; negative phase-contrast optics, recording rate of 60 frames/s, minimum contrast of 70, minimum cell size of 4 pixels, low size gate of 0.17, high size gate of 2.9, low intensity gate of 0.6, high intensity gate of 1.74, non-motile head size of 10 pixels, non-motile head intensity of 135, progressive VAP threshold of 50 μm/s, slow (static) cells VAP threshold of 20 μm/s, slow (static) cells VSL threshold of 0 μm/s and threshold STR of 75%. […] Cells with a VAP greater than that of the mean VAP of progressive cells were considered ‘rapid’. A minimum of 200 spermatozoa in a minimum of five fields were assessed using 20 μm Leja standard count slides (Gytech, Australia) and a stage temperature of 37° C. […]
Semen was collected, processed and stored according as above (Example 2, Section 1.1). Following 1, 3, 7, 10 and 14 days of storage at RT in the base extender solution as described (Example 2, Experiment 2) supplemented with glycine to a final concentration of 82.2 mM (pH of the medium was 7.9), sperm motility was assessed using CASA as above. Data were analysed using JMP v14 software (ANOVA).

[2] = test system: bovine spermatozoa; assay: Effects of medium components on bovine sperm motility after 24 hours at RT (Experiment 2); format: cell-based; details: for total and progressive motilities when 50% of the NaCl was replaced: L-carnitine 100 mM or choline chloride 95 mM; for effect on sperm motility at the 24 h mark as determined by CASA: field conditions, rosiglitazone 0-100 μM, sugar source, coenzyme Q10
Excerpt: Institutional and New South Wales State Government ethical approval was secured for the use of animal material in this study. This research was based on ejaculates from 17 normozoospermic Angus bulls (between 3 and 7 years of age) of proven fertility, held on institutionally-approved premises at Charles Sturt University ([…], Australia). Semen was collected via electro-ejaculation, and the ejaculate was either left undiluted (Experiment 1) or was immediately diluted (2:1; extender:semen) with INRA96 (Experiments 2 and 3-Sections 2 and 3). […] Equipment and extender medium were maintained at temperatures between 30° C. and 37° C. for the duration of semen collection and dilution. The tubes of extended semen were then held in the laboratory at RT (approx. 20 to 25° C.) for up to 30 min prior to further processing. For Experiment 1, up to 6 mL of the extended semen was either centrifuged directly (700×g for 10 min), or was overlaid on top of BoviPureTM gradient and centrifuged at 700×g for 20 min, and for Experiments 2 and 3 up to 5 mL extended semen was layered on top of PercollTM gradients and centrifuged at 700×g for 30 min. Following centrifugation, the seminal plasma and density gradient media were removed and discarded. Spermatozoa were recovered from the base of the tubes, resuspended in 2 mL BWW and washed via centrifugation (500×g for 5 min) with BWW. These pelleted cells were then resuspended at a concentration of 50×10^6 spermatozoa/mL in the experimental extender media. Sperm motility was objectively determined with computer assisted sperm analysis (CASA; IVOS, Hamilton Thorne, Danvers, MA) using the following settings; negative phase-contrast optics, recording rate of 60 frames/s, minimum contrast of 70, minimum cell size of 4 pixels, low size gate of 0.17, high size gate of 2.9, low intensity gate of 0.6, high intensity gate of 1.74, non-motile head size of 10 pixels, non-motile head intensity of 135, progressive VAP threshold of 50 μm/s, slow (static) cells VAP threshold of 20 μm/s, slow (static) cells VSL threshold of 0 μm/s and threshold STR of 75%. […] Cells with a VAP greater than that of the mean VAP of progressive cells were considered 'rapid'. A minimum of 200 spermatozoa in a minimum of five fields were assessed using 20 μm Leja standard count slides ([…], Australia) and a stage temperature of 37° C.

[3] = test system: bovine spermatozoa; assay: Comparison of amino acid osmolytes on bovine sperm motility during liquid storage at RT; format: cell-based; details: for total and progressive motilities compared with other osmolyte treatments: Part 1, 7 days storage at RT, n=10 bulls; for total and progressive motilities compared with other osmolyte treatments / motility by day 14 of storage / loss in motility between 3 and 10 days of storage: 82.2 mM in base solution without NaCl; for motility by day 14 of storage / loss in motility between 3 and 10 days of storage / motility compared with NaCl and choline chloride controls: Part 2; for motility by day 14 of storage / loss in motility between 3 and 10 days of storage: RT; for loss in motility between 3 and 10 days of storage: n=9 bulls; for motility compared with NaCl and choline chloride controls: all time points (3, 7, 10, 14 days) at RT; for capability to prolong bovine sperm motility at room temperature: amino acid as osmolyte in extender medium
Excerpt: Sperm motility was objectively determined with computer assisted sperm analysis (CASA; IVOS, Hamilton Thorne, Danvers, MA) using the following settings; negative phase-contrast optics, recording rate of 60 frames/s, minimum contrast of 70, minimum cell size of 4 pixels, low size gate of 0.17, high size gate of 2.9, low intensity gate of 0.6, high intensity gate of 1.74, non-motile head size of 10 pixels, non-motile head intensity of 135, progressive VAP threshold of 50 μm/s, slow (static) cells VAP threshold of 20 μm/s, slow (static) cells VSL threshold of 0 μm/s and threshold STR of 75%. […] Cells with a VAP greater than that of the mean VAP of progressive cells were considered ‘rapid’. A minimum of 200 spermatozoa in a minimum of five fields were assessed using 20 μm Leja standard count slides (Gytech, Australia) and a stage temperature of 37° C.
Bull semen (animals were housed at Charles Sturt University, Wagga Wagga, NSW, Australia) was collected via electroejaculation, immediately diluted 2:1 (extender:semen) with equine INRA96™ semen extender, and maintained at room temperature (RT) before further processing. Extended semen was then layered onto a discontinuous (45/90%) Percoll™ gradient and centrifuged at 700×g for 30 min to isolate high quality spermatozoa to be used for storage experiments described below. The high-quality pelleted spermatozoa were then resuspended in modified Biggers, Whitter and Whittingham (BWW) medium (Gibb et al., 2014) and washed again via centrifugation (300×g for 5 min). Pelleted spermatozoa were then resuspended in the various formulations described in each experiment, and stored in 5 mL Sarstedt specimen pots at RT (21-23° C.) in the dark until they were assessed.
This study was undertaken in 2 parts: the first was a screening of soluble amino acids (spermatozoa from split ejaculates of n=10 bulls), and the second was to confirm the results of the first part using only the most successful 3 amino acids (spermatozoa from split ejaculates of n=9 bulls). Sodium chloride and choline chloride were used as osmolyte controls.
The base bovine extender solution described above (Example 1, Experiment 3) was utilised for the purposes of these evaluations, with the exception that the 41.1 mM NaCl was not included in the base solution to which either the test amino acid or choline chlorine was added. Test amino acid was added to the base solution to a final concentration of 82.2 mM whilst the controls contained either the NaCl or choline chloride to a final concentration of 41.1 mM. The initial pH of solutions varied between 7-10 and were adjusted to be between 7.5 and 8.0 with either KOH or HCl. All test media were supplemented with 100 U/ml Nystatin to control fungal growth. Sperm motility was assessed as per Example 1.
For Part 1 of the study, motility was evaluated following 7 days liquid storage at room temperature (RT). Motility of spermatozoa was evaluated at 3, 7, 10 and 14 days liquid storage at RT for Part 2 of the study. Data were again analysed using JMP v14 software (ANOVA).

[4] = Lide, Handbook of Chemistry and Physics, 72nd Edition; cited from earlier work

OC(Cn1cncn1)(Cn1cncn1)c1ccc(F)cc1F [Fluconazole]
difference in sperm motility between antifungal treatments and control with no antifungal [1]: No significant differences

C[N+](C)(C)C[C@H](O)CC(=O)[O-] [L-carnitine]
total and progressive motilities when 50% of the NaCl was replaced ([2]; 24 hours at RT): improved

CC(=O)C(=O)[O-].[Na+] [Sodium pyruvate]
difference in sperm motility versus absence of the component ([2]; 0.275 mM to 20 mM, 24 hours at RT): No significant difference

C[C@H](N)C(=O)O [alanine]
total and progressive motilities compared with other osmolyte treatments [3]: significantly higher than all other treatments
motility by day 14 of storage [3]: significantly declined
loss in motility between 3 and 10 days of storage [3]: did not suffer any significant loss in motility
motility compared with NaCl and choline chloride controls [3]: significantly higher than both of the controls
isoelectric point (pI) [4]: 6.0

C[N+](C)(C)CCO.[Cl-] [choline chloride, reference compound]
total and progressive motilities when 50% of the NaCl was replaced ([2]; 24 hours at RT): improved

COC1=C(OC)C(=O)C(C/C=C(\C)CC/C=C(\C)CC/C=C(\C)CC/C=C(\C)CC/C=C(\C)CC/C=C(\C)CC/C=C(\C)CC/C=C(\C)CC/C=C(\C)CCC=C(C)C)=C(C)C1=O [coenzyme Q10]
effect on sperm motility at the 24 h mark as determined by CASA [2]: No significant effects

N[C@@H](CS)C(=O)O [cysteine]
capability to prolong bovine sperm motility at room temperature [3]: no or only relatively limited capability
isoelectric point (pI) [4]: 5.07

O=C(CO)[C@@H](O)[C@H](O)[C@H](O)CO [fructose]
effect on sperm motility at the 24 h mark as determined by CASA [2]: No significant effects

NCC(=O)O [glycine]
total and progressive motilities compared with other osmolyte treatments [3]: significantly higher than all other treatments
motility by day 14 of storage [3]: significantly declined
loss in motility between 3 and 10 days of storage [3]: did not suffer any significant loss in motility
motility compared with NaCl and choline chloride controls [3]: significantly higher than both of the controls
isoelectric point (pI) [4]: 5.97

CC[C@H](C)[C@H](N)C(=O)O [isoleucine]
capability to prolong bovine sperm motility at room temperature [3]: no or only relatively limited capability
isoelectric point (pI) [4]: 6.02

CC(C)C[C@H](N)C(=O)O [leucine]
capability to prolong bovine sperm motility at room temperature [3]: no or only relatively limited capability

CSCC[C@H](N)C(=O)O [methionine]
capability to prolong bovine sperm motility at room temperature [3]: no or only relatively limited capability
isoelectric point (pI) [4]: 5.74

N[C@@H](Cc1ccccc1)C(=O)O [phenylalanine]
capability to prolong bovine sperm motility at room temperature [3]: no or only relatively limited capability
isoelectric point (pI) [4]: 5.48

O=C(O)[C@@H]1CCCN1 [proline]
capability to prolong bovine sperm motility at room temperature [3]: no or only relatively limited capability
isoelectric point (pI) [4]: 6.3

OC[C@H]1O[C@H](OC[C@H]2O[C@H](O[C@]3(CO)O[C@H](CO)[C@@H](O)[C@@H]3O)[C@H](O)[C@@H](O)[C@@H]2O)[C@H](O)[C@@H](O)[C@H]1O [raffinose]
effect on sperm motility at the 24 h mark as determined by CASA [2]: No significant effects

OC[C@H]1O[C@@](CO)(O[C@H]2O[C@H](CO)[C@@H](O)[C@H](O)[C@H]2O)[C@@H](O)[C@@H]1O [sucrose]
effect on sperm motility at the 24 h mark as determined by CASA [2]: No significant effects

NCCS(=O)(=O)O [taurine, 2-aminoethane-1-sulfonic acid]
total and progressive motilities compared with other osmolyte treatments [3]: significantly higher than all other treatments
total and progressive motility, taurine compared with valine ([3]; day 3 of liquid storage): better total and progressive motility

N[C@@H](Cc1c[nH]c2ccccc12)C(=O)O [tryptophan]
capability to prolong bovine sperm motility at room temperature [3]: no or only relatively limited capability
isoelectric point (pI) [4]: 5.89

CC(C)[C@H](N)C(=O)O [valine]
total and progressive motilities compared with other osmolyte treatments [3]: substantially better
motility by day 14 of storage [3]: significantly declined
loss in motility between 3 and 10 days of storage [3]: did not suffer any significant loss in motility
motility compared with NaCl and choline chloride controls [3]: significantly higher than both of the controls
motility, valine compared with taurine ([3]; day 14 of liquid storage, data not shown): better motility
isoelectric point (pI) [4]: 5.96
